Read-outs that look alike come from different tables or passages of the source.
Assays:
[1] = Quantification in postmortem blood and urine of dipyanone-positive forensic cases; settings: for concentration in blood, case #2: autoptic heart blood; for concentration in urine, case #2: autoptic urine
[2] = tested on: mouse; design: method as in Janssen and Jageneau 2011; settings: ref Janssen and Jageneau 2011; cited from earlier work
[3] = design: method as in Scott et al. 1947; settings: ref Scott et al. 1947; cited from earlier work
[4] = tested on: mice; settings: ref Scott et al. 1946, 1947; cited from earlier work
[5] = tested on: ten-donor-pooled cryopreserved human hepatocytes; experiment: Human hepatocyte incubation, LC-HRMS/MS metabolite identification; type: in vitro ADME; settings: for Hepatocytes peak area: LC-HRMS, positive ionisation mode, three hours of incubation with human hepatocytes, ND not detected; for portion of the total metabolites' signal: hepatocyte incubation, three hours
Method: Dipyanone incubations with human hepatocytes were carried out as previously described (Carlier et al. [2022]; Taoussi et al. [2024]). Briefly, the hepatocytes were thawed in 50 mL of thawing medium at 37 °C. After centrifugation (100 g, 5 min), the supernatant was discarded and the pellet was resuspended in 50 mL of SWM at 37 °C. Following a second centrifugation (100 g, 5 min), the supernatant was removed, and the pellet was resuspended in 2 mL of SWM at 37 °C. Cell viability was determined using the trypan blue exclusion method, and the SWM volume was adjusted to reach a concentration of 2 × 10^6 cells/mL. In sterile 24-well culture plates, 250 µL hepatocyte suspension was gently mixed with 250 µL of dipyanone (20 µmol/L in SWM). The plates were incubated at 37 °C, and reactions were stopped after 0 or 3 h with 500 µL ice-cold acetonitrile, followed by centrifugation (15,000 g, 10 min). Negative (without SWM, hepatocytes, or dipyanone) and positive controls (diclofenac incubation) were incubated for 0 and 3 h under the same conditions to exclude nonspecific reactions and ensure proper metabolic activity. Incubates were stored at – 80° until analysis.
A 100 µL volume of incubate was mixed with 100 µL of acetonitrile and centrifuged for 10 min, 15,000 g at room temperature for protein precipitation (acetonitrile:SWM, 3:1, v/v). The supernatant was dried under a nitrogen stream at 37 °C. […] Again, the solution was centrifuged (10 min, 15,000 g) at room temperature. The resulting supernatant was transferred into vials with a glass insert, and 10 µL was injected into the chromatographic system for analysis.
The total chromatographic run time was 24 min.

[6] = Metabolite identification in authentic postmortem urine samples by LC-HRMS/MS; settings: for portion of the total metabolites' signal in urine: both urine samples; for Urine #1 peak area with β-gluc: postmortem urine case #1, after β-glucuronidase hydrolysis; for Urine #1 peak area with β-gluc / Urine #1 peak area / Urine #2 peak area with β-gluc / Urine #2 peak area: ND not detected; for Urine #1 peak area: postmortem urine case #1, no hydrolysis; for Urine #1 peak area / Urine #2 peak area: positive ionisation mode; for Urine #2 peak area with β-gluc: postmortem urine case #2, after β-glucuronidase hydrolysis; for Urine #2 peak area: postmortem urine case #2, no hydrolysis
Method: (§1) Samples were thawed at room temperature. A 100 µL aliquot was mixed with 200 µL of acetonitrile and centrifuged for 10 min at 15,000 g at room temperature. The supernatants were evaporated to dryness under nitrogen at 37 °C. The residues were reconstituted in 100 µL of a mixture containing 95% mobile phase A and 5% mobile phase B (v/v). After centrifugation under the same conditions, the supernatants were transferred to autosampler vials with glass inserts. A 10 µL volume was injected into the chromatographic system for analysis.
(§2) To investigate glucuronic acid conjugation, 100 µL of urine was mixed with 10 µL of 10 mol/L ammonium acetate (pH 5.0) and 100 µL of β-glucuronidase (5000 units), then incubated at 37 °C for 90 min. Subsequently, 400 µL of ice-cold acetonitrile was added to the mixtures, which were centrifuged for 10 min at 15,000 g at room temperature. The supernatants were evaporated to dryness under nitrogen at 37 °C and reconstituted in 100 µL of a mixture containing 95% mobile phase A and 5% mobile phase B (v/v). After centrifugation under the same conditions, the supernatants were transferred to autosampler vials with glass inserts. A 10 µL volume was injected into the chromatographic system for analysis.
(§3) The analyses were conducted by liquid chromatography-high-resolution tandem mass spectrometry (LC-HRMS/MS) with a DIONEX UltiMate 3000 liquid chromatographer coupled to a Q Exactive quadrupole-Orbitrap hybrid high-resolution mass spectrometer equipped with a heated electrospray ionisation (HESI) source from Thermo Scientific (Waltham, Massachusetts, USA).
(§4) The compounds were separated using a Kinetex Biphenyl column (150 × 2.1 mm, 2 μm) from Phenomenex (Torrance, California, USA). The separation was achieved using mobile phases A and B at a flow rate of 0.4 mL/min. The gradient elution program was as follows: 2% B was held for 2 min, then increased to 25% B over 12 min, followed by a rapid increase to 95% B within 2 min, and held for 4 min. Subsequently, the initial conditions were restored within 0.1 min and maintained for 3.9 min. The total chromatographic run time was 24 min. Throughout the analysis, the column oven temperature was maintained at 37 ± 1 °C, while the autosampler temperature was set to 10 ± 1 C.
(§5) All samples were analysed in both positive- and negative-ion modes, requiring two separate injections while maintaining the same HESI conditions. […] Prior to each analytical session, mass calibration was performed using certified calibration solutions in both positive and negative ion modes. To enhance accuracy, a lock mass list was compiled for positive- (m/z 279.0933, 144.9821, 146.9803) and negative ion modes (m/z 265.1479, 162.9824, 248.9604).
(§6) The mass spectrometer acquired from 1 to 20 min of the chromatographic run in full-scan HRMS (FullMS)/data-dependent MS/MS (ddMS^2) mode. The FullMS settings were as follows: range, m/z 100 to 650; resolution at full width at half maximum at m/z 200, 70,000; automatic gain control target, 1 × 10^6; and maximum injection time, 200 ms. For ddMS^2, the settings were: automatic gain control target, 2 × 10^5; maximum injection time, 64 ms; isolation window, m/z 1.2; resolution, 17,500; and stepped normalised collision energy, 40, 70, and 90 a.u. A maximum of five ddMS^2 scans were triggered for each FullMS scan, with a minimum intensity of 10^4 and dynamic exclusion of 2.0 s..
(§7) LC-HRMS/MS data were processed with Thermo Scientific Compound Discoverer in a single analysis.

[7] = target: human MOR membrane preparation (Homo sapiens, UniProt P35372); experiment: biochemical
Sequence of human MOR membrane preparation (P35372 whole entry): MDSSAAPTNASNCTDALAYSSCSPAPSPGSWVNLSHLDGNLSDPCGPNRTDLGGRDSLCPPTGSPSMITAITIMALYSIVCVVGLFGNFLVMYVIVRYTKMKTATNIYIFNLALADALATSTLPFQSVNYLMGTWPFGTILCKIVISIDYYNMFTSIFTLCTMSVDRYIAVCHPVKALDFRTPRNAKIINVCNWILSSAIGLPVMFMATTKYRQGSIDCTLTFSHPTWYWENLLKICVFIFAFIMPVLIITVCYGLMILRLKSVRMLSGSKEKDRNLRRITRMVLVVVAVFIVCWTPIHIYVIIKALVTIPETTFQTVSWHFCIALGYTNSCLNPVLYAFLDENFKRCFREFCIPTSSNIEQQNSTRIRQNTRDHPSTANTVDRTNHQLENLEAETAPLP

[8] = target: human KOR membrane preparation (Homo sapiens, UniProt P41145); experiment: HTRF-based GTP Gi binding assay, KOR; type: biochemical
Sequence of human KOR membrane preparation (P41145 whole entry): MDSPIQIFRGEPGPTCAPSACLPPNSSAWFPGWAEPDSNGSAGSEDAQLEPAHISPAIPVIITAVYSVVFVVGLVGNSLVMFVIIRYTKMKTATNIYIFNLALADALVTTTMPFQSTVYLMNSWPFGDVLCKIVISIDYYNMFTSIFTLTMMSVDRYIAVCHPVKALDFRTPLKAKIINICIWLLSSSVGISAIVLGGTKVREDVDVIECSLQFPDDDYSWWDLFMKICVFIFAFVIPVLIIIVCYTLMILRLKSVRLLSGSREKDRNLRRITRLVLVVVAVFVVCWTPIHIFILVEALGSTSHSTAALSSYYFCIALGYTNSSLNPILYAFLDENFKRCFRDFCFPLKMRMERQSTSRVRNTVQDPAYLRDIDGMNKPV

[9] = target: human DOR membrane preparation (Homo sapiens, UniProt P41143); experiment: HTRF-based GTP Gi binding assay, DOR; type: biochemical
Sequence of human DOR membrane preparation (P41143 whole entry): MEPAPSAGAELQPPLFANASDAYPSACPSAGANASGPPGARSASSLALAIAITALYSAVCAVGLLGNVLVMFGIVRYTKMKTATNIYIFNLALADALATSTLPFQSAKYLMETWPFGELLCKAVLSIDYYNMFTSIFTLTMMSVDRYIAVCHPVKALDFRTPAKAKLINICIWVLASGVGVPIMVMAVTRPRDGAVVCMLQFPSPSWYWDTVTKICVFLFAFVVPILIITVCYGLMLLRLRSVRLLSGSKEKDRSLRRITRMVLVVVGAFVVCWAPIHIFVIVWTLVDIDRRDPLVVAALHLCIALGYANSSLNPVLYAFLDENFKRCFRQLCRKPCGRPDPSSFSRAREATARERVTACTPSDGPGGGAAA

[10] = human, in vivo
Method: as §1, §2, §3, §4, §5, §6, §7

[11] = tested on: µ-opioid receptor; settings: cited from earlier work
[12] = tested on: mouse; design: method as in Bockmühl and Ehrhart 1949; settings: mouse tail pinch test; ref Bockmühl and Ehrhart 1949; cited from earlier work
[13] = detected alongside other NSOs; ref Vandeputte et al. 2023; cited from earlier work

For 2-fluoromethamphetamine, which “concentration in blood, case #2” value [1] is on record?
Its value is 96 ng/mL.

For `CCC(=O)C(CC(C)N(C)C)(c1ccccc1)c1ccccc1` (centres unmarked) [methadone, reference compound], which “median effective dose, mouse hot plate assay” value [2] is on record?
Its value is 5.18 mg/kg.

And the analgesic threshold [3]?
The analgesic threshold was 1 to 2 mg/kg.

What about the LD50 in mice [4] of the same molecule?
Its LD50 in mice is ~ 17 mg/kg.

Which Hepatocytes peak area [5] does the source give for `CC=C1N(CCCCO)C(C)CC1(c1ccccc1)c1ccccc1` (centres unmarked) [M12, 4’-[2-ethylidene-5-methyl-3,3-diphenylpyrrolidin-1-yl]butan-1’-ol] here?
The Hepatocytes peak area was 1.8 × 10^7.

And the “portion of the total metabolites' signal” value [5]?
Its value is 50%.

And the “portion of the total metabolites' signal in urine” value [6]?
The value was 23–26%.

What about the “Urine #1 peak area with β-gluc” value [6] of the same molecule?
The value was 3.4 × 10^9.

What about the “Urine #1 peak area” value [6] of the same molecule?
The value was 2.3 × 10^9.

What about the “Urine #2 peak area with β-gluc” value [6] of the same molecule?
The value was 1.7 × 10^9.

What about the “Urine #2 peak area” value [6] of the same molecule?
Its value is 2.1 × 10^9.

Which “concentration in blood, case #2” value [1] does the source give for `CC[C@@H]1CN2CC[C@@]3(O)C(=Nc4cccc(OC)c43)[C@@H]2C[C@@H]1/C(=C\OC)C(=O)OC` [7-hydroxymitragynine] here?
The value was 4.7 ng/mL.

What about the “concentration in urine, case #2” value [1] of the same molecule?
Its value is over 200 ng/mL.

What does the source list for `CNC1(c2ccccc2F)CCCCC1=O` (centres unmarked) [2-fluoro-deschloroketamine]?
concentration in blood, case #2 [1]: < 1.0 ng/mL; concentration in urine, case #2 [1]: > 50 ng/mL

Which “concentration in blood, case #2” value [1] does the source give for `CC(N)Cc1ccccc1F` (centres unmarked) [2-fluoroamphetamine] here?
The value was 24 ng/mL.

Which “concentration in blood, case #2” value [1] does the source give for mitragynine here?
The value was 160 ng/mL.

What about the “concentration in urine, case #2” value [1] of the same molecule?
The value was over 200 ng/mL.

What does the source list for `CCNC1(c2ccccc2)CCCCC1=O` (centres unmarked) [deschloro-N-ethylketamine]?
concentration in blood, case #2 [1]: 46 ng/mL; concentration in urine, case #2 [1]: > 50 ng/mL

Which “concentration in blood, case #2” value [1] does the source give for `CNC1(c2ccccc2)CCCCC1=O` (centres unmarked) [deschloroketamine] here?
Its value is 1.0 ng/mL.

And the “concentration in urine, case #2” value [1]?
Its value is 23 ng/mL.

For `CC=C1N(CCCC(=O)O)C(C)CC1(c1ccccc1)c1ccccc1` (centres unmarked) [M13, 4’-[2-ethylidene-5-methyl-3,3-diphenylpyrrolidin-1-yl]butanoic acid], which Hepatocytes peak area [5] is on record?
Its Hepatocytes peak area is 9.5 × 10^6.

And the “portion of the total metabolites' signal” value [5]?
The value was 27%.

What about the “portion of the total metabolites' signal in urine” value [6] of the same molecule?
Its value is 61%.

What about the “Urine #1 peak area with β-gluc” value [6] of the same molecule?
Its value is 5.7 × 10^9.

And the “Urine #1 peak area” value [6]?
Its value is 5.4 × 10^9.

What about the “Urine #2 peak area with β-gluc” value [6] of the same molecule?
The value was 3.3 × 10^9.

And the “Urine #2 peak area” value [6]?
Its value is 5.6 × 10^9.

With `CCC(=O)C(CC(C)N1CCCC1)(c1ccccc1)c1ccccc1` (centres unmarked) [Dipyanone, 4,4-diphenyl-6-(1’-pyrrolidinyl)-3-heptanone] as the molecule, how does the EC50 [7] read?
Its EC50 is 96.8 nM.

And the EC50 [8]?
Its EC50 is 380 nM.

What about the Emax ([8]; normalised to U-50488, mean (95% CI), n = 3, read-out: KOR Emax relative to U-50488) of the same molecule?
Its Emax is 13%.

And the EC50 [9]?
The EC50 was 1070 nM.

What about the Emax ([9]; normalised to SNC-80, mean (95% CI), n = 3, read-out: DOR Emax relative to SNC-80) of the same molecule?
Its Emax is 56%.

And the Hepatocytes peak area [5]?
The Hepatocytes peak area was 7.7 × 10^8.

And the “LC-HRMS/MS peak area after incubation relative to its original value” ([5]; after three hours of incubation, compared to the controls)?
Its value is “approximately one-sixth”.

What about the “Urine #2 peak area” value [10] of the same molecule?
The value was 1.3 × 10^10.

And the “efficacy (Emax) compared to hydromorphone at the µ-opioid receptor” value [11]?
Its value is 155%.

What about the EC50 ([11]; read-out: EC50 at MOR, β-arrestin2 recruitment assay) of the same molecule?
The EC50 was 39.9 nM.

What about the “median effective dose, mouse hot plate assay” value [2] of the same molecule?
The value was 6.82 mg/kg.

What about the “analgesic properties relative to pethidine” value [12] of the same molecule?
The value was 5–10 times.

And the analgesic threshold [3]?
Its analgesic threshold is 1 to 2 mg/kg.

And the LD50 in mice [4]?
Its LD50 in mice is ~ 17 mg/kg.

And the “blood concentration, postmortem case in the USA” value [13]?
The value was 370 ng/mL.

And the “Urine #1 peak area with β-gluc” value [6]?
Its value is 1.3 × 10^10.

What about the “Urine #1 peak area” value [6] of the same molecule?
Its value is 1.1 × 10^10.

And the “Urine #2 peak area with β-gluc” value [6]?
Its value is 8.0 × 10^9.

And the “concentration in urine, four dipyanone-related fatalities” value ([1]; Germany 2022 and 2023, own unpublished data)?
Its value is 80 to 5500 ng/mL.

What about the “concentration in blood, case #2” value [1] of the same molecule?
The value was 80 ng/mL.

What about the “concentration in blood, case #1” value ([1]; postmortem femoral blood) of the same molecule?
The value was 720 ng/mL.
